Columns and labels:
hROMK (hKir1.1) = hROMK (hKir1.1) (Homo sapiens (Human), UniProt P48048); experiment: Thallium Flux Assay (ROMK channel functional thallium flux, FLIPR-Tetra); format: cell-based; settings: HEK293 cells stably expressing hROMK (hKir1.1)
Experimental: HEK293 cells stably expressing hROMK (hKir1.1) were grown at 37° C. in a 10% CO2 humidified incubator in complete growth media: Dulbecco's Modified Eagle Medium supplemented with non-essential amino acids, Penicillin/Streptomycin/Glutamine, G418 and FBS. At >80% confluency, aspirate the media from the flask and rinse with 10 mL Calcium/Magnesium-free PBS. Add 5 mL of 1× trypsin (prepared in Ca/Mg Free PBS) to T-225 flask and return flask to 37° C./CO2 incubator for 2-3 minutes. To dislodge the cell, gently bang the side of the flask with your hand. Triturate the cells completely and then transfer the cells to 25 mL complete media. Centrifuge at 1,500 rpm for 6 min followed by resuspension in complete growth media and determine cell concentration. For typical re-seeding, 4E6 cells/T-225 flask will attain>80% confluency in 4 days. Under ideal growth conditions and appropriate tissue culture practices, this cell line is stable for 40-45 passages.
• FluxOR™ Reagent (Component A) • FluxOR™ Assay Buffer (Component B)—10× Concentrate • PowerLoad™ Concentrate (Component C)—100× Concentrate • Probenecid (Component D)—Lyophilized sample is kept at −20° C. Water soluble, 100× after solubilization in 1 mL water. Store at 4° C. • FluxOR™ Chloride-free Buffer (Component E)—5× Concentrate • Potassium sulfate (K2SO4) Concentrate (Component F)—125 mM in water. Store at 4° C. • Thallium sulfate (Tl2SO4) Concentrate (Component G)—50 mM in water. Store at 4° C. • DMSO (dimethyl sulfoxide, Component H)—1 mL (100%) Reagent Preparation: FluxOR Working Solutions • 1000× FluxOR™ Reagent: Reconstitute a vial of component A in 100 μl DMSO; Mix well; Store 10 μl aliquots at −20° C. • 1× FluxOR™ Assay Buffer: Dilute Component B 10-fold with water; Adjust pH to 7.4 with Hepes/NaOH; Filter and store at 4° C. • Probenecid/Assay Buffer: 100 mL of 1× FluxOR™ Assay Buffer; 1 mL of reconstituted component D; Store at 4° C. • Loading Buffer (per microplate): 10 μl 1000× FluxOR™ Reagent; 100 μl component C; 10 mL Probenecid/Assay Buffer • Compound Buffer (per microplate): 20 mL Probenecid/Assay Buffer; 0.3 mM ouabain (10 mM ouabain in water can be stored in amber bottle/aluminum foil at room temperature); Test compound • 1× FluxOR™ Chloride-Free Buffer: Prepare 1× working solution in water. Can be stored at room temperature • Stimulant Buffer (prepared at 5× final concentration in 1× FluxOR™ Chloride-Free Buffer): 7.5 mM Thallium sulfate and 0.75 mM Potassium sulfate (to give a final assay concentration of 3 mM Thallium/0.3 mM Potassium). Store at 4° C. when not in use. If kept sterile, this solution is good for months. Assay Protocol—
The ROMK channel functional thallium flux assay is performed in 384 wells, using the FLIPR-Tetra instrument. HEK-hKir1.1 cells are seeded in Poly-D-Lysine microplates and kept in a 37° C.-10% CO2 incubator overnight. On the day of the experiment, the growth media is replaced with the FluxOR™ reagent loading buffer and incubated, protected from light, at ambient temperature (23-25° C.) for 90 min. The loading buffer is replaced with assay buffer±test compound followed by 30 min incubation at ambient temperature, where the Thallium/Potassium stimulant is added to the microplate.
• 1. Seed HEK-hKir1.1 cells (50 μl at 20,000 cells/well) in 384-well PDL coated Microplates • 2. Allow cells to adhere overnight in humidified 37° C./10% CO2 incubator • 3. Completely remove cell growth media from microplate and replace with 25 μl loading buffer • 4. Incubate Microplate at room temperature, protected form light, for 90 min • 5. Remove loading buffer and replace with 25 μl 1× Assay Buffer±test compound. • 6. Incubate microplate at room temperature, protected form light, for 30 min • 7. At FLIPR-Tetra 384: Add stimulant (Thallium/Potassium) solution to microplate and monitor fluorescence. Excitation=400 nm, Emission=460 & 580 nm. Collect data for ˜10 min. Data Calculation—

Kir1.1 (ROMK1) = Kir1.1 (ROMK1) (Homo sapiens (Human), UniProt P48048); experiment: Electrophysiology Assay (whole cell voltage clamp, IonWorks Quattro); format: cell-based; settings: Chinese hamster ovary cells stably expressing Kir1.1; block during voltage step to 0 mV
Kir1.1 (ROMK1), sequence (P48048 whole entry): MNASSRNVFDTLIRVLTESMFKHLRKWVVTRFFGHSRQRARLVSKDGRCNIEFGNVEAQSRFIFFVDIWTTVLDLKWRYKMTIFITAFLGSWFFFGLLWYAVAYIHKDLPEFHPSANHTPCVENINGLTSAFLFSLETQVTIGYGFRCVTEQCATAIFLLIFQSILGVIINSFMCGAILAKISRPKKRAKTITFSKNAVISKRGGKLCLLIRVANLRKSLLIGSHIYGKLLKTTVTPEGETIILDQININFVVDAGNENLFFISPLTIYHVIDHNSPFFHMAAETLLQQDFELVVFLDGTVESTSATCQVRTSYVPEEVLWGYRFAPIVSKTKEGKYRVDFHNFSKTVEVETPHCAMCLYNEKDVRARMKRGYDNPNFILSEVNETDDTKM
Experimental: Block of Kir1.1 (ROMK1) currents was examined by whole cell voltage clamp (Hamill et. al. […] Prior to an experiment, Kir1.1 expression was induced by overnight incubation with 1 mM sodium butyrate. […] After centrifugation, the cell pellet was resuspended in approximately 4.0 mL of bath solution and placed in the IonWorks instrument. The intracellular solution consisted of (in mM): 80 K gluconate, 40 KCl, 20 KF, 3.2 MgCl2, 3 EGTA, 5 Hepes, pH 7.4. […] Amphotericin B (Sigma A-4888) was prepared as a 40 mg/mL solution in DMSO. Voltage protocols and current recordings were performed using the IonWorks HT software/hardware system. […] No correction for liquid junction potentials was used. The test pulse, consisting of a 100 ms step to 0 mV from a holding potential of −70 mV, followed by a 100 ms voltage ramp from −70 mV to +70 mV, was applied before and after a 6 min compound incubation period. Test compounds were prepared by diluting DMSO stock solutions into the bath solution at 3× the final concentration and placed in the instrument in 96-well polypropylene plates. Current amplitudes were measured using the IonWorks software. To assess compound potency, the fractional block during the voltage step to 0 mV was calculated in Microsoft Excel (Microsoft, Redmond, Calif.), and dose-response curves were fitted with Igor Pro 4.0 (WaveMetrics, Lake Oswego, Oreg.).

hROMK (hKir1.1), sequence (P48048 whole entry): as above

Row | Structure (SMILES) | IC50 (hROMK (hKir1.1)) [nM] | IC50 (Kir1.1 (ROMK1)) [nM]
1 | N#Cc1c(F)ccc([C@@H]2CN3CCN(C(=O)C4CCc5nc(-n6cnnn6)ccc54)C[C@@H]3CO2)c1F (some centres unmarked) [Example 20] | 230 | 80
2 | N#Cc1c(F)ccc([C@H]2CN3CCN(C(=O)C4CCc5nc(-n6cnnn6)ccc54)C[C@@H]3CO2)c1F (some centres unmarked) [Example 21] | 240 | 80
3 | N#Cc1c(F)ccc([C@@H]2CN3CCN(C(=O)C4CCc5cc(-n6cnnn6)ncc54)C[C@H]3CO2)c1F (some centres unmarked) [Example 22] | 160 | 40
4 | N#Cc1c(F)ccc([C@H]2CN3CCN(C(=O)C4CCc5cc(-n6cnnn6)ncc54)C[C@@H]3CO2)c1F (some centres unmarked) [Example 23] | 540 | 150
5 | N#Cc1c(F)ccc([C@@H]2CN3CCN(C(=O)C4CCc5cc(-n6cnnn6)ncc54)C[C@@H]3CO2)c1F (some centres unmarked) [Example 24] | 110 | 200
6 | N#Cc1c(F)ccc([C@H]2CN3CCN(C(=O)C4CCc5cc(-n6cnnn6)ncc54)C[C@H]3CO2)c1F (some centres unmarked) [Example 25] | 100 | 60
7 | N#Cc1c(F)ccc([C@@H]2CN3CCN(C(=O)C4CCc5nc(-n6cnnn6)ccc54)C[C@H]3CO2)c1Cl (some centres unmarked) [Example 26] | 220 | 110
8 | N#Cc1c(F)ccc([C@@H]2CN3CCN(C(=O)C4CCc5nc(-n6cnnn6)ccc54)C[C@H]3CO2)c1Cl (some centres unmarked) [Example 27] | 230 | 120
9 | N#Cc1c(F)ccc([C@H]2CN3CCN(C(=O)C4CCc5nc(-n6cnnn6)ccc54)C[C@H]3CO2)c1Cl (some centres unmarked) [Example 28] | 220 | 120
10 | N#Cc1c(F)ccc([C@H]2CN3CCN(C(=O)C4CCc5nc(-n6cnnn6)ccc54)C[C@H]3CO2)c1Cl (some centres unmarked) [Example 29] | 450 | 140
11 | N#Cc1c(F)ccc([C@H]2CN3CCN(C(=O)C4CCc5nc(-n6cnnn6)ccc54)C[C@@H]3CO2)c1Cl (some centres unmarked) [Example 30] | 290 | 190
12 | N#Cc1c(F)ccc([C@@H]2CN3CCN(C(=O)C4CCc5cc(-n6cnnn6)ncc54)C[C@H]3CO2)c1Cl (some centres unmarked) [Example 31] | 110 | 80
13 | N#Cc1c(F)ccc([C@H]2CN3CCN(C(=O)C4CCc5cc(-n6cnnn6)ncc54)C[C@H]3CO2)c1Cl (some centres unmarked) [Example 32] | 130 | 70
14 | Cc1c([C@H]2CN3CCN(C(=O)C4CCc5nc(-n6cnnn6)ccc54)C[C@@H]3CO2)ccc(F)c1C#N (some centres unmarked) [Example 34] | 120 | 160
15 | Cc1c([C@H]2CN3CCN(C(=O)C4CCc5cc(-n6cnnn6)ncc54)C[C@H]3CO2)ccc(F)c1C#N (some centres unmarked) [Example 36] | 660 | 140
16 | Cc1c([C@@H]2CN3CCN(C(=O)C4CCc5cc(-n6cnnn6)cnc54)C[C@H]3CO2)ccc(F)c1C#N (some centres unmarked) [Example 37] | 810 | 240
17 | Cc1c([C@@H]2CN3CCN(C(=O)C4CCc5cc(-n6cnnn6)cnc54)C[C@H]3CO2)ccc(F)c1C#N (some centres unmarked) [Example 38] | 900 | 280

Row | Structure (SMILES) | IC50 (hROMK (hKir1.1)) [nM] | IC50 (Kir1.1 (ROMK1)) [nM]
18 | Cc1c([C@H]2CN3CCN(C(=O)C4CCc5cc(-n6cnnn6)cnc54)C[C@@H]3CO2)ccc(F)c1C#N (some centres unmarked) [Example 39] | 600 | 390
19 | Cc1c([C@H]2CN3CCN(C(=O)C4CCc5cc(-n6cnnn6)ncc54)C[C@@H]3CO2)ccc(F)c1C#N (some centres unmarked) [Example 40] | 270 | 120
20 | Cc1c([C@H]2CN3CCN(C(=O)C4CCc5cc(-n6cnnn6)ncc54)C[C@@H]3CO2)ccc(F)c1C#N (some centres unmarked) [Example 41] | 720 | 110
21 | Cc1c([C@@H]2CN3CCN(C(=O)C4CCc5cc(-n6cnnn6)ncc54)C[C@@H]3CO2)ccc(F)c1C#N (some centres unmarked) [Example 42] | 350 | 130
22 | Cc1c([C@@H]2CN3CCN(C(=O)C4CCc5cc(-n6cnnn6)ncc54)C[C@@H]3CO2)ccc(F)c1C#N (some centres unmarked) [Example 43] | 850 | 130
23 | Cc1c([C@@H]2CN3CCN(C(=O)C4CCc5cc(-n6cnnn6)ncc54)C[C@H]3CO2)ccc(F)c1C#N (some centres unmarked) [Example 44] | 170 | 170
24 | O=C1OCCc2cc([C@@H]3CN4CCN(C(=O)C5CCc6cc(-n7cnnn7)ncc65)C[C@H]4CO3)ccc21 (some centres unmarked) [Example 45] | 600 | 220
25 | COc1cc([C@H]2CN3CCN(C(=O)C4CCc5nc(-n6cnnn6)ccc54)C[C@H]3CO2)ccc1C#N (some centres unmarked) [Example 51] | 580 | 190
26 | COc1c([C@@H]2CN3CCN(C(=O)C4CCc5cc(-n6cnnn6)ncc54)C[C@H]3CO2)ccc(F)c1C#N (some centres unmarked) [Example 52] | 420 | 220
27 | COc1cc([C@@H]2CN3CCN(C(=O)C4CCc5nc(-n6cnnn6)ccc54)C[C@@H]3CO2)ccc1C#N (some centres unmarked) [Example 63] | 740 | 270
28 | N#Cc1c(F)ccc([C@@H]2CN3CCN(C(=O)C4CCc5nc(-n6cnnn6)ccc54)C[C@@H]3CO2)c1Cl (some centres unmarked) [Example 64] | 120 | 100
29 | N#Cc1c(F)ccc([C@@H]2CN3CCN(C(=O)C4CCc5nc(-n6cnnn6)ccc54)C[C@@H]3CO2)c1Cl (some centres unmarked) [Example 65] | 340 | 140
30 | N#Cc1cc([C@@H]2CN3CCN(C(=O)C4CCc5cc(-n6cnnn6)ncc54)C[C@H]3CO2)c(F)cc1F (some centres unmarked) [Example 68] | 200 | 200
31 | COc1c([C@@H]2CN3CCN(C(=O)C4CCc5cc(-n6cnnn6)ncc54)C[C@H]3CO2)ccc(C#N)c1F (some centres unmarked) [Example 70] | 500 | 100
32 | COc1ccc([C@H]2CN3CCN(C(=O)C4CCc5cc(-n6cnnn6)ncc54)C[C@@H]3CO2)c(C)c1C#N (some centres unmarked) [Example 74] | 500 | 280
33 | Cc1c([C@@H]2CN3CCN(C(=O)C4Cc5cnc(-n6cnnn6)nc5C4)C[C@@H]3CO2)ccc(F)c1C#N (some centres unmarked) [Example 75] | 250 | 150
34 | Cc1c([C@H]2CN3CCN(C(=O)C4Cc5cnc(-n6cnnn6)nc5C4)C[C@H]3CO2)ccc(F)c1C#N (some centres unmarked) [Example 76] | 460 | 130
